In US9532990B2 (Zhejiang DTRM Biopharma Co. Ltd., priority 2014, dated 2017):
pIC50: −log10 of the molar value.

What follows are compounds tested against BTK wild type (Homo sapiens (Human), UniProt Q06187) (assay: Inhibition assay of BTK kinase activity (HTRF)). Details: all compounds with IC50 of less 10 nM; read-out: IC50 (BTK).
Assay type: biochemical
Experimental: Inhibition Assay of BTK Kinase Activity:
The enzyme reaction mixture of BTK wild type standard HTRF assay contained 1 nM BTK wild type, 1 μM biotin-TK1 peptide, and 30 μM ATP in a buffer. The enzyme reaction were carried out at room temperature for 60 minutes. […] The plates were incubated at room temperature for 60 minutes and then read in the Envision plate reader.

Chain of BTK wild type (Q06187 whole entry): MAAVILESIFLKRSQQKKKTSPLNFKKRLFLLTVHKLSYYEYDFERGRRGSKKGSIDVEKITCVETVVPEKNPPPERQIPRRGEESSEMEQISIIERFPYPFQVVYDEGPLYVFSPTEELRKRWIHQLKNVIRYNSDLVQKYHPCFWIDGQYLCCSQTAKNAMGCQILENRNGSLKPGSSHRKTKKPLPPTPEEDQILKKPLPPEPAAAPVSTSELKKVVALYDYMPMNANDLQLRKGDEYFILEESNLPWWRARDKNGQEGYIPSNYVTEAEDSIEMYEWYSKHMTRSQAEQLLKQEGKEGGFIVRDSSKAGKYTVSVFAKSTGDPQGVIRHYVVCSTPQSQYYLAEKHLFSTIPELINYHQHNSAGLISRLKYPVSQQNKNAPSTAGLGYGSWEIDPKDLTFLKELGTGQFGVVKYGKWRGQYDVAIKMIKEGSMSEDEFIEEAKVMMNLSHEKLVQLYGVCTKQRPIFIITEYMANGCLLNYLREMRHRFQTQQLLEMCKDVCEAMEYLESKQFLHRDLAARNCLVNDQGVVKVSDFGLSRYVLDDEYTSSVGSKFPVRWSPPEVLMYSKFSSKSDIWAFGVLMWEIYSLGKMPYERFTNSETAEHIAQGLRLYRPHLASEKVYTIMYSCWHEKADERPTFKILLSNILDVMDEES

Q: `Nc1ncnc2c1c(-c1ccc(Oc3c(F)c(F)cc(F)c3F)cc1F)nn2[C@@H]1CCCN(C(=O)CCl)C1` [Compound 99, 1-((R)-3-(4-amino-3-(2-fluoro-4-(2,3,5,6-tetrafluorophenoxy)phenyl)-1H-pyrazolo[3,4-d]pyrimidin-1-yl)piperidin-1-yl)-2-chloroethanone] was tested. Which pIC50 did it give?
A: > 8.00

Q: How did the pIC50 turn out when `N#C/C=C\C(=O)N1CC[C@@H](n2nc(-c3ccc(Oc4c(F)c(F)cc(F)c4F)cc3F)c3c(N)ncnc32)C1` [Compound 98, (Z)-4-((R)-3-(4-amino-3-(2-fluoro-4-(2,3,5,6-tetrafluorophenoxy)phenyl)-1H-pyrazolo[3,4-d]pyrimidin-1-yl)pyrrolidin-1-yl)-4-oxobut-2-enenitrile] was run?
A: > 8.00

Q: `C=C(F)C(=O)N1CC[C@@H](n2nc(-c3ccc(Oc4c(F)c(F)cc(F)c4F)cc3F)c3c(N)ncnc32)C1` [Compound 106, 1-((R)-3-(4-amino-3-(2-fluoro-4-(2,3,5,6-tetrafluorophenoxy)phenyl)-1H-pyrazolo[3,4-d]pyrimidin-1-yl)pyrrolidin-1-yl)-2-fluoroprop-2-en-1-one] was tested. Which pIC50 did it give?
A: > 8.00

Q: How did the pIC50 turn out when `CC#CC(=O)N1CC[C@@H](n2nc(-c3ccc(Oc4cccc(F)c4)cc3F)c3c(N)ncnc32)C1` [Compound 123, 1-((R)-3-(4-amino-3-(2-fluoro-4-(3-fluorophenoxy)phenyl)-1H-pyrazolo[3,4-d]pyrimidin-1-yl)pyrrolidin-1-yl)but-2-yn-1-one] was run?
A: > 8.00

Q: How did the pIC50 turn out when `C=CC(=O)N1CCCC(n2nc(-c3ccc(Oc4c(F)ccc(F)c4F)cc3F)c3c(N)ncnc32)C1` (centres unmarked) [Compound 21, 1-(3-(4-amino-3-(2-fluoro-4-(2,3,6-trifluorophenoxy)phenyl)-1H-pyrazolo[3,4-d]pyrimidin-1-yl)piperidin-1-yl)prop-2-en-1-one] was run?
A: > 8.00

Same assay, conditions: read-out: BTK IC50

Q: `C=CC(=O)N1CCCC(n2nc(-c3ccc(C(=O)c4ccc(F)cc4)cc3F)c3c(N)ncnc32)C1` (centres unmarked) [Compound 2, 1-(3-(4-amino-3-(2-fluoro-4-(4-fluorobenzoyl)phenyl)-1H-pyrazolo[3,4-d]pyrimidin-1-yl)piperidin-1-yl)prop-2-en-1-one] was tested. Which pIC50 did it give?
A: 8.30

Q: With `CNC(=O)/C=C/CNC(=O)N1CC[C@@H](n2nc(-c3ccc(Oc4c(F)c(F)cc(F)c4F)cc3F)c3c(N)ncnc32)C1` [Compound 76, (3R)-3-(4-amino-3-(2-fluoro-4-(2,3,5,6-tetrafluorophenoxy)phenyl)-1H-pyrazolo[3,4-d]pyrimidin-1-yl)-N-(4-(methylamino)-4-oxobut-2-enyl)pyrrolidine-1-carboxamide] as the compound, how does the pIC50 read?
A: 7.57

Q: How did the pIC50 turn out when `C/C=C/C(=O)N1CC[C@@H](n2nc(-c3ccc(Oc4c(F)c(F)cc(F)c4F)cc3F)c3c(N)ncnc32)C1` [Compound 104, (E)-1-((R)-3-(4-amino-3-(2-fluoro-4-(2,3,5,6-tetrafluorophenoxy)phenyl)-1H-pyrazolo[3,4-d]pyrimidin-1-yl)pyrrolidin-1-yl)but-2-en-1-one] was run?
A: 6.97

Q: With `C=CC(=O)NCCn1nc(-c2ccc(Oc3c(F)c(F)cc(F)c3F)cc2F)c2c(N)ncnc21` [Compound 82, N-(2-(4-amino-3-(2-fluoro-4-(2,3,5,6-tetrafluorophenoxy)phenyl)-1H-pyrazolo[3,4-d]pyrimidin-1-yl)ethyl)acrylamide] as the compound, how does the pIC50 read?
A: 7.60

Q: How did the pIC50 turn out when `Nc1ncnc2c1c(-c1ccc(Oc3c(F)c(F)cc(F)c3F)cc1F)nn2C1CCC(N2C(=O)CSC2=O)CC1` (centres unmarked) [Compound 40, 3-(4-(4-amino-3-(2-fluoro-4-(2,3,5,6-tetrafluorophenoxy)phenyl)-1H-pyrazolo[3,4-d]pyrimidin-1-yl)cyclohexyl)thiazolidine-2,4-dione] was run?
A: 5.79

Q: With `C=CC(=O)NC(C)C(C)n1nc(-c2ccc(Oc3c(F)c(F)cc(F)c3F)cc2F)c2c(N)ncnc21` (centres unmarked) [Compound 83, N-(3-(4-amino-3-(2-fluoro-4-(2,3,5,6-tetrafluorophenoxy)phenyl)-1H-pyrazolo[3,4-d]pyrimidin-1-yl)butan-2-yl)acrylamide] as the compound, how does the pIC50 read?
A: 7.12

Q: How did the pIC50 turn out when `C=CC(=O)N1CCC(Cn2nc(-c3ccc(Oc4c(F)c(F)cc(F)c4F)cc3F)c3c(N)ncnc32)C1` (centres unmarked) [Compound 29, 1-(3-((4-amino-3-(2-fluoro-4-(2,3,5,6-tetrafluorophenoxy)phenyl)-1H-pyrazolo[3,4-d]pyrimidin-1-yl)methyl)pyrrolidin-1-yl)prop-2-en-1-one] was run?
A: 7.59

Q: How did the pIC50 turn out when `Nc1ncnc2c1c(-c1ccc(Oc3c(F)c(F)cc(F)c3F)cc1F)nn2[C@@H]1CCCN(C(=O)CCl)C1` [Compound 99, 1-((R)-3-(4-amino-3-(2-fluoro-4-(2,3,5,6-tetrafluorophenoxy)phenyl)-1H-pyrazolo[3,4-d]pyrimidin-1-yl)piperidin-1-yl)-2-chloroethanone] was run?
A: 8.70

Q: `C=CC(=O)N[C@H]1CC[C@@H](n2nc(-c3ccc(Oc4c(F)c(F)cc(F)c4F)cc3F)c3c(N)ncnc32)C1` [Compound 26, N-((1s,3r)-3-(4-amino-3-(2-fluoro-4-(2,3,5,6-tetrafluorophenoxy)phenyl)-1H-pyrazolo[3,4-d]pyrimidin-1-yl)cyclopentyl)acrylamide] was tested. Which pIC50 did it give?
A: 7.47

Q: How did the pIC50 turn out when `CC(C)(CO)C(=O)C(=O)N1CC[C@@H](n2nc(-c3ccc(Oc4c(F)c(F)cc(F)c4F)cc3F)c3c(N)ncnc32)C1` [Compound 80, 1-((R)-3-(4-amino-3-(2-fluoro-4-(2,3,5,6-tetrafluorophenoxy)phenyl)-1H-pyrazolo[3,4-d]pyrimidin-1-yl)pyrrolidin-1-yl)-4-hydroxy-3,3-dimethylbutane-1,2-dione] was run?
A: 5.89

Q: How did the pIC50 turn out when `CNC(=O)N1CCCC(n2nc(-c3ccc(Oc4c(F)c(F)cc(F)c4F)cc3F)c3c(N)ncnc32)C1` (centres unmarked) [Compound 52, 3-(4-amino-3-(2-fluoro-4-(2,3,5,6-tetrafluorophenoxy)phenyl)-1H-pyrazolo[3,4-d]pyrimidin-1-yl)-N-methylpiperidine-1-carboxamide] was run?
A: 7.22

Q: With `CNC(=O)C(=O)N1CCCC(n2nc(-c3ccc(Oc4c(F)c(F)cc(F)c4F)cc3F)c3c(N)ncnc32)C1` (centres unmarked) [Compound 57, 2-(3-(4-amino-3-(2-fluoro-4-(2,3,5,6-tetrafluorophenoxy)phenyl)-1H-pyrazolo[3,4-d]pyrimidin-1-yl)piperidin-1-yl)-N-methyl-2-oxoacetamide] as the compound, how does the pIC50 read?
A: 6.16

Q: With `Nc1ncnc2c1c(-c1ccc(Oc3c(F)c(F)cc(F)c3F)cc1F)nn2[C@@H]1CCN(C(=O)/C=C/c2ccccc2F)C1` [Compound 93, (E)-1-((R)-3-(4-amino-3-(2-fluoro-4-(2,3,5,6-tetrafluorophenoxy)phenyl)-1H-pyrazolo[3,4-d]pyrimidin-1-yl)pyrrolidin-1-yl)-3-(2-fluorophenyl)prop-2-en-1-one] as the compound, how does the pIC50 read?
A: 5.58

Q: `Nc1ncnc2c1c(-c1ccc(Oc3c(F)c(F)cc(F)c3F)cc1F)nn2CCN1C(=O)C=CC1=O` [Compound 51, 1-(2-(4-amino-3-(2-fluoro-4-(2,3,5,6-tetrafluorophenoxy)phenyl)-1H-pyrazolo[3,4-d]pyrimidin-1-yl)ethyl)-1H-pyrrole-2,5-dione] was tested. Which pIC50 did it give?
A: 6.28

Q: How did the pIC50 turn out when `N#CCN1CC[C@@H](n2nc(-c3ccc(Oc4c(F)c(F)cc(F)c4F)cc3F)c3c(N)ncnc32)C1` [Compound 113, 2-((R)-3-(4-amino-3-(2-fluoro-4-(2,3,5,6-tetrafluorophenoxy)phenyl)-1H-pyrazolo[3,4-d]pyrimidin-1-yl)pyrrolidin-1-yl)acetonitrile] was run?
A: 6.68

Q: How did the pIC50 turn out when `Nc1ncnc2c1c(-c1ccc(Oc3c(F)c(F)cc(F)c3F)cc1F)nn2[C@@H]1CCCN(C(=O)C(Cl)Cl)C1` [Compound 101, 1-((R)-3-(4-amino-3-(2-fluoro-4-(2,3,5,6-tetrafluorophenoxy)phenyl)-1H-pyrazolo[3,4-d]pyrimidin-1-yl)piperidin-1-yl)-2,2-dichloroethanone] was run?
A: 6.28

Q: With `C=CC(=O)N1CCCC(Cn2nc(-c3ccc(Oc4c(F)c(F)cc(F)c4F)cc3F)c3c(N)ncnc32)C1` (centres unmarked) [Compound 31, 1-(3-((4-amino-3-(2-fluoro-4-(2,3,5,6-tetrafluorophenoxy)phenyl)-1H-pyrazolo[3,4-d]pyrimidin-1-yl)methyl)piperidin-1-yl)prop-2-en-1-one] as the compound, how does the pIC50 read?
A: 7.82

Q: `N#C/C=C\C(=O)N1CC[C@@H](n2nc(-c3ccc(Oc4c(F)c(F)cc(F)c4F)cc3F)c3c(N)ncnc32)C1` [Compound 98, (Z)-4-((R)-3-(4-amino-3-(2-fluoro-4-(2,3,5,6-tetrafluorophenoxy)phenyl)-1H-pyrazolo[3,4-d]pyrimidin-1-yl)pyrrolidin-1-yl)-4-oxobut-2-enenitrile] was tested. Which pIC50 did it give?
A: 8.70

Q: With `C=C(F)C(=O)N1CC[C@@H](n2nc(-c3ccc(Oc4c(F)c(F)cc(F)c4F)cc3F)c3c(N)ncnc32)C1` [Compound 106, 1-((R)-3-(4-amino-3-(2-fluoro-4-(2,3,5,6-tetrafluorophenoxy)phenyl)-1H-pyrazolo[3,4-d]pyrimidin-1-yl)pyrrolidin-1-yl)-2-fluoroprop-2-en-1-one] as the compound, how does the pIC50 read?
A: 8.52

Q: How did the pIC50 turn out when `C=CC(=O)N1CCCC(n2nc(-c3ccc(Oc4c(F)ccc(F)c4F)cc3F)c3c(N)ncnc32)C1` (centres unmarked) [Compound 21, 1-(3-(4-amino-3-(2-fluoro-4-(2,3,6-trifluorophenoxy)phenyl)-1H-pyrazolo[3,4-d]pyrimidin-1-yl)piperidin-1-yl)prop-2-en-1-one] was run?
A: 8.30

Q: `CN/C(=N\C#N)N1CCCC(n2nc(-c3ccc(Oc4c(F)c(F)cc(F)c4F)cc3F)c3c(N)ncnc32)C1` (centres unmarked) [Compound 54, 3-[4-amino-3-[2-fluoro-4-(2,3,5,6-fluorophenoxy)phenyl]-1H-pyrazolo[3,4-d]pyrimidine-1-yl]-N′-cyano-N-methyl-piperidine-1-carboxamidine] was tested. Which pIC50 did it give?
A: 5.79

Q: How did the pIC50 turn out when `Nc1ncnc2c1c(-c1ccc(Oc3c(F)c(F)cc(F)c3F)cc1F)nn2[C@@H]1CCCN(C(=O)CF)C1` [Compound 107, 1-((R)-3-(4-amino-3-(2-fluoro-4-(2,3,5,6-tetrafluorophenoxy)phenyl)-1H-pyrazolo[3,4-d]pyrimidin-1-yl)piperidin-1-yl)-2-fluoroethanone] was run?
A: 7.00

Q: How did the pIC50 turn out when `Nc1ncnc2c1c(-c1ccc(Oc3c(F)c(F)cc(F)c3F)cc1F)nn2[C@H]1CC[C@H](N2C(=O)C=CC2=O)C1` [Compound 37, 1-((1 S,3S)-3-(4-amino-3-(2-fluoro-4-(2,3,5,6-tetrafluorophenoxy)phenyl)-1H-pyrazolo[3,4-d]pyrimidin-1-yl)cyclopentyl)-1H-pyrrole-2,5-dione] was run?
A: 7.00

Q: With `C=CC(=O)N1CCCC(n2nc(-c3ccc(C(=O)c4ccc(F)cc4)c(F)c3)c3c(N)ncnc32)C1` (centres unmarked) [Compound 1, 1-(3-(4-amino-3-(3-fluoro-4-(4-fluorobenzoyl)phenyl)-1H-pyrazolo[3,4-d]pyrimidin-1-yl)piperidin-1-yl)prop-2-en-1-one] as the compound, how does the pIC50 read?
A: 7.18

Q: With `Nc1ncnc2c1c(-c1ccc(C(=O)c3cccc(F)c3)cc1F)nn2C1CCCN(C(=O)C2CO2)C1` (centres unmarked) [Compound 9, (3-(4-amino-3-(2-fluoro-4-(3-fluorobenzoyl)phenyl)-1H-pyrazolo[3,4-d]pyrimidin-1-yl)piperidin-1-yl)(oxiran-2-yl)methanone] as the compound, how does the pIC50 read?
A: 7.08

Q: With `Nc1ncnc2c1c(-c1ccc(Oc3c(F)c(F)cc(F)c3F)cc1F)nn2C1CCCC(N2C(=O)C=CC2=O)C1` (centres unmarked) [Compound 36, 1-(3-(4-amino-3-(2-fluoro-4-(2,3,5,6-tetrafluorophenoxy)phenyl)-1H-pyrazolo[3,4-d]pyrimidin-1-yl)cyclohexyl)-1H-pyrrole-2,5-dione] as the compound, how does the pIC50 read?
A: 6.23

Q: With `O=C(CC(=O)C(F)(F)F)Nc1ncnc2c1c(-c1ccc(Oc3c(F)c(F)cc(F)c3F)cc1F)nn2C1CCCNC1` (centres unmarked) [Compound 66, 4,4,4-trifluoro-N-(3-(2-fluoro-4-(2,3,5,6-tetrafluorophenoxy)phenyl)-1-(piperidin-3-yl)-1H-pyrazolo[3,4-d]pyrimidin-4-yl)-3-oxobutanamide] as the compound, how does the pIC50 read?
A: 6.14
